According to patent publication US20120010075A1 (priority 2009, published 2012):

System: Leptosphaeria nodorum (LEPTNO)
Assay: Isolated metal-hydrazone complexes versus parent hydrazones, in vitro, Leptosphaeria nodorum (Example 31, Table 7)
Type: cell-based
Details: Parastagonospora nodorum; 0.1 μg/mL; copper-minus medium; 72 h

| Compound | inhibition at 0.1 µg/mL [%] |
| --- | --- |
| O=C(N/N=C/c1cc(Cl)ccc1O)c1ccccc1 [Example 20] | 14.7 |
| C/C(=N\NC(=O)c1ccccc1)c1cc(Cl)cc(Cl)c1O [Example 60] | 23.3 |
| O=C(N/N=C/c1cccc(Cl)c1O)c1ccccc1 [Example 231] | 10.7 |
| O=C(N/N=C/c1c(O)cccc1Cl)c1ccccc1 [Example 236] | 4.7 |
| O=C(N/N=C/c1ccc(Cl)c(Cl)c1O)c1ccccc1 [Example 238] | 20 |
| O=C(N/N=C/c1cc(C(F)(F)F)ccc1O)c1ccccc1 [Example 277] | 0.6 |
| C/C(=N\NC(=O)c1cccc(C)c1)c1cc(Cl)cc(Cl)c1O [Example 278] | 16.2 |
| C/C(=N\NC(=O)c1ccc(C)cc1)c1cc(Cl)cc(Cl)c1O [Example 279] | 19.9 |
| COc1cccc(/C(C)=N/NC(=O)c2ccccc2)c1O [Example 299] | 18.6 |
| COc1cccc(/C(C)=N/NC(=O)c2ccccc2C)c1O [Example 300] | 2.5 |
| COc1cccc(/C(C)=N/NC(=O)c2cccc(C)c2)c1O [Example 301] | 3.5 |
| COc1cccc(/C(C)=N/NC(=O)c2ccc(C)cc2)c1O [Example 302] | 22.9 |
| COc1cccc(/C(C)=N/NC(=O)c2ccccc2Cl)c1O [Example 303] | 10.6 |

System: Phytophthora infestans
Assay: not given
Type: in vivo, Phytophthora infestans on tomato
Details: hydrazone 50 ppm + 50 μM CuCl2.2H2O, applied 24 h before inoculation, assessed 7 days after inoculation, tomato

| Compound | TLB % Control [%] |
| --- | --- |
| O=C(N/N=C/c1cc(Cl)ccc1O)c1ccccc1 [Example 20] | 96.5 |
| C/C(=N\NC(=O)c1ccccc1)c1cc(Cl)cc(Cl)c1O [Example 60] | 85.0 |
| O=C(N/N=C/c1cccc(Cl)c1O)c1ccccc1 [Example 231] | 81.3 |
| O=C(N/N=C/c1c(O)cccc1Cl)c1ccccc1 [Example 236] | 88.1 |
| O=C(N/N=C/c1ccc(Cl)c(Cl)c1O)c1ccccc1 [Example 238] | 92.5 |
| O=C(N/N=C/c1cc(C(F)(F)F)ccc1O)c1ccccc1 [Example 277] | 86.4 |
| C/C(=N\NC(=O)c1cccc(C)c1)c1cc(Cl)cc(Cl)c1O [Example 278] | 90.0 |
| C/C(=N\NC(=O)c1ccc(C)cc1)c1cc(Cl)cc(Cl)c1O [Example 279] | 96.0 |

Same assay, conditions: hydrazone 50 ppm with 50 μM CuCl2.2H2O, applied 24 h before inoculation; assessed 7 days after inoculation; tomato late blight

| Compound | TLB % Control [%] |
| --- | --- |
| COc1cccc(/C(C)=N/NC(=O)c2ccccc2)c1O [Example 299] | 74.0 |
| COc1cccc(/C(C)=N/NC(=O)c2ccccc2C)c1O [Example 300] | 70.0 |
| COc1cccc(/C(C)=N/NC(=O)c2cccc(C)c2)c1O [Example 301] | 82.0 |
| COc1cccc(/C(C)=N/NC(=O)c2ccc(C)cc2)c1O [Example 302] | 82.0 |
| COc1cccc(/C(C)=N/NC(=O)c2ccccc2Cl)c1O [Example 303] | 45.0 |

System: Leptosphaeria nodorum (LEPTNO)
Assay: In vitro fungitoxicity of hydrazones with and without copper towards Leptosphaeria nodorum (Example 26)
Type: cell-based
Details: Parastagonospora nodorum, 72 h, compound 0.05 μg/mL, copper-minus medium, 72 h at 25° C.; read-out: LEPTNO % Inhn. Minus Copper Observed

| Compound | inhibition of growth at 0.05 µg/mL [%] |
| --- | --- |
| O=C(N/N=C/c1cc(Cl)ccc1O)c1ccccc1 [Example 20] | 2.8 |
| C/C(=N\NC(=O)c1ccccc1)c1cc(Cl)cc(Cl)c1O [Example 60] | 7.3 |
| O=C(N/N=C/c1cccc(Cl)c1O)c1ccccc1 [Example 231] | 0 |
| O=C(N/N=C/c1c(O)cccc1Cl)c1ccccc1 [Example 236] | 3.5 |
| O=C(N/N=C/c1ccc(Cl)c(Cl)c1O)c1ccccc1 [Example 238] | 0.5 |
| O=C(N/N=C/c1cc(C(F)(F)F)ccc1O)c1ccccc1 [Example 277] | 1.9 |
| C/C(=N\NC(=O)c1cccc(C)c1)c1cc(Cl)cc(Cl)c1O [Example 278] | 1.7 |
| C/C(=N\NC(=O)c1ccc(C)cc1)c1cc(Cl)cc(Cl)c1O [Example 279] | 5.1 |

Same assay, conditions: Parastagonospora nodorum, 72 h, copper-minus medium; test compound Concn. 0.05 μg/mL; 72 h at 25° C.; read-out: LEPTNO % Inhn. Minus Copper Observed

| Compound | inhibition of growth at 0.05 µg/mL [%] |
| --- | --- |
| COc1cccc(/C(C)=N/NC(=O)c2ccccc2)c1O [Example 299] | 0 |
| COc1cccc(/C(C)=N/NC(=O)c2ccccc2C)c1O [Example 300] | 0 |
| COc1cccc(/C(C)=N/NC(=O)c2cccc(C)c2)c1O [Example 301] | 0 |
| COc1cccc(/C(C)=N/NC(=O)c2ccc(C)cc2)c1O [Example 302] | 0 |
| COc1cccc(/C(C)=N/NC(=O)c2ccccc2Cl)c1O [Example 303] | 0 |

Same assay, conditions: compound 0.05 μg/mL, copper-plus medium (CuCl2.2H2O), 72 h at 25° C.

| Compound | LEPTNO % Inhn. Plus Copper Observed [%] |
| --- | --- |
| O=C(N/N=C/c1cc(Cl)ccc1O)c1ccccc1 [Example 20] | 96.5 |
| C/C(=N\NC(=O)c1ccccc1)c1cc(Cl)cc(Cl)c1O [Example 60] | 97.5 |
| O=C(N/N=C/c1cccc(Cl)c1O)c1ccccc1 [Example 231] | 98.5 |
| O=C(N/N=C/c1c(O)cccc1Cl)c1ccccc1 [Example 236] | 97.0 |
| O=C(N/N=C/c1ccc(Cl)c(Cl)c1O)c1ccccc1 [Example 238] | 97.6 |
| O=C(N/N=C/c1cc(C(F)(F)F)ccc1O)c1ccccc1 [Example 277] | 97.5 |
| C/C(=N\NC(=O)c1cccc(C)c1)c1cc(Cl)cc(Cl)c1O [Example 278] | 97.7 |
| C/C(=N\NC(=O)c1ccc(C)cc1)c1cc(Cl)cc(Cl)c1O [Example 279] | 98.6 |

Same assay, conditions: copper-plus medium (CuCl2 10 μM); test compound Concn. 0.05 μg/mL; 72 h at 25° C.

| Compound | LEPTNO % Inhn. Plus Copper Observed [%] |
| --- | --- |
| COc1cccc(/C(C)=N/NC(=O)c2ccccc2)c1O [Example 299] | 97.9 |
| COc1cccc(/C(C)=N/NC(=O)c2ccccc2C)c1O [Example 300] | 97.2 |
| COc1cccc(/C(C)=N/NC(=O)c2cccc(C)c2)c1O [Example 301] | 97.9 |
| COc1cccc(/C(C)=N/NC(=O)c2ccc(C)cc2)c1O [Example 302] | 96.4 |
| COc1cccc(/C(C)=N/NC(=O)c2ccccc2Cl)c1O [Example 303] | 98.0 |

System: Phytophthora capsici
Assay: In vitro fungitoxicity of hydrazones with and without copper towards Phytophthora capsici (Example 28, Table 3)
Type: cell-based
Details: 0.050 μg/mL; copper-plus AS medium (CuCl2, 50 μM); 48 h

| Compound | % Inhn Plus copper Observed [%] |
| --- | --- |
| O=C(N/N=C/c1cc(Cl)ccc1O)c1ccccc1 [Example 20] | 90.4 |
| C/C(=N\NC(=O)c1ccccc1)c1cc(Cl)cc(Cl)c1O [Example 60] | 76.4 |
| O=C(N/N=C/c1cc(C(F)(F)F)ccc1O)c1ccccc1 [Example 277] | 88.2 |

Same assay, conditions: Phytophthora capsici; 0.050 μg/mL; copper-minus AS medium; 48 h; read-out: % Inhn Minus copper Observed

| Compound | inhibition of growth at 0.05 µg/mL [%] |
| --- | --- |
| O=C(N/N=C/c1cc(Cl)ccc1O)c1ccccc1 [Example 20] | 2.1 |
| C/C(=N\NC(=O)c1ccccc1)c1cc(Cl)cc(Cl)c1O [Example 60] | 4.1 |
| O=C(N/N=C/c1cc(C(F)(F)F)ccc1O)c1ccccc1 [Example 277] | 0 |

System: Septoria tritici isolate USA-184
Assay: In vitro fungitoxicity of hydrazones with and without copper towards Septoria tritici (Example 30, Table 5)
Type: cell-based
Details: Zymoseptoria tritici; 0.05 μg/mL; Colby formula; CuCl2; read-out: % Inhibition Plus copper Predicted

| Compound | inhibition at 0.05 µg/mL [%] |
| --- | --- |
| O=C(N/N=C/c1cc(Cl)ccc1O)c1ccccc1 [Example 20] | 0 |
| C/C(=N\NC(=O)c1ccccc1)c1cc(Cl)cc(Cl)c1O [Example 60] | 20.6 |
| O=C(N/N=C/c1cc(C(F)(F)F)ccc1O)c1ccccc1 [Example 277] | 3.6 |

Same assay, conditions: Zymoseptoria tritici; 0.05 μg/mL; copper-minus medium; 90 h; read-out: % Inhibition Minus copper Observed

| Compound | inhibition at 0.05 µg/mL [%] |
| --- | --- |
| O=C(N/N=C/c1cc(Cl)ccc1O)c1ccccc1 [Example 20] | 0 |
| C/C(=N\NC(=O)c1ccccc1)c1cc(Cl)cc(Cl)c1O [Example 60] | 20.6 |
| O=C(N/N=C/c1cc(C(F)(F)F)ccc1O)c1ccccc1 [Example 277] | 3.6 |

Same assay, conditions: Zymoseptoria tritici; 0.05 μg/mL; copper-plus medium CuCl2; 90 h; read-out: % Inhibition Plus copper Observed

| Compound | inhibition at 0.05 µg/mL [%] |
| --- | --- |
| O=C(N/N=C/c1cc(Cl)ccc1O)c1ccccc1 [Example 20] | 95.3 |
| C/C(=N\NC(=O)c1ccccc1)c1cc(Cl)cc(Cl)c1O [Example 60] | 94.8 |
| O=C(N/N=C/c1cc(C(F)(F)F)ccc1O)c1ccccc1 [Example 277] | 88 |

System: Ustilago maydis
Assay: In vitro fungitoxicity of hydrazones with and without copper towards Ustilago maydis (Example 29, Table 4)
Type: cell-based
Details: 1 μg/mL; copper-plus medium (CuCl2, 10 μM); 48 h

| Compound | % Inhn. Plus copper Observed [%] |
| --- | --- |
| O=C(N/N=C/c1cc(Cl)ccc1O)c1ccccc1 [Example 20] | 91.0 |
| C/C(=N\NC(=O)c1ccccc1)c1cc(Cl)cc(Cl)c1O [Example 60] | 93.5 |
| O=C(N/N=C/c1cc(C(F)(F)F)ccc1O)c1ccccc1 [Example 277] | 83.5 |

Same assay, conditions: Mycosarcoma maydis; 1 μg/mL; copper-minus medium; 48 h; read-out: % Inhn. Minus copper Observed

| Compound | inhibition of growth at 1 µg/mL [%] |
| --- | --- |
| O=C(N/N=C/c1cc(Cl)ccc1O)c1ccccc1 [Example 20] | 1.2 |
| C/C(=N\NC(=O)c1ccccc1)c1cc(Cl)cc(Cl)c1O [Example 60] | 0 |
| O=C(N/N=C/c1cc(C(F)(F)F)ccc1O)c1ccccc1 [Example 277] | 1.7 |

System: not given
Assay: not given
Details: not given

| Compound | melting point [°C] |
| --- | --- |
| O=C(N/N=C/c1cccc(Cl)c1O)c1ccccc1 [Example 231] | 188 to 189 |
| O=C(N/N=C/c1c(O)cccc1Cl)c1ccccc1 [Example 236] | 247 to 248 |
| O=C(N/N=C/c1ccc(Cl)c(Cl)c1O)c1ccccc1 [Example 238] | 249 to 252 |
| O=C(N/N=C/c1cc(C(F)(F)F)ccc1O)c1ccccc1 [Example 277] | 214 to 217 |
| C/C(=N\NC(=O)c1cccc(C)c1)c1cc(Cl)cc(Cl)c1O [Example 278] | 221 to 223 |
| C/C(=N\NC(=O)c1ccc(C)cc1)c1cc(Cl)cc(Cl)c1O [Example 279] | 262 to 264 |
| COc1cccc(/C(C)=N/NC(=O)c2ccccc2)c1O [Example 299] | 146 to 148 |
| COc1cccc(/C(C)=N/NC(=O)c2ccccc2C)c1O [Example 300] | 208 to 209 |
| COc1cccc(/C(C)=N/NC(=O)c2cccc(C)c2)c1O [Example 301] | 121 to 123 |
| COc1cccc(/C(C)=N/NC(=O)c2ccc(C)cc2)c1O [Example 302] | 146 to 148 |
| COc1cccc(/C(C)=N/NC(=O)c2ccccc2Cl)c1O [Example 303] | 233 to 234 |
